Data: US10689377B2 (Mirati Therapeutics, Inc., priority 2017, dated 2020)

Tests used:
[1] = biological target: KRas G12C (Homo sapiens, UniProt P01116, G12C); assay: Cellular inhibition of KRas G12C measured by Phospho-ERK in NCI-H358 cells; assay type: cell-based; conditions: pERK(Thr202/Tyr204) normalized with GAPDH, NCI-H358 cells, 3 hours; read-out: IC50
In short: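 Readout is pERK(Thr202/Tyr204) immunofluorescence normalized to GAPDH, expressed as percent of DMSO control and fitted with a 4-parameter curve for IC50. Attached NCI-H358 cells received compound for 3 hours in 0.5% DMSO, followed by fixation and methanol permeabilization.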

[2] = In vitro stability in human whole blood; assay type: in vitro ADME; conditions: male, whole blood diluted to 50% with PBS, pH 7.4, human whole blood diluted to 50% with PBS, 5 μM, 37° C., 240-minute incubation, read-out: Compound Half-life
Source text: Materials: The following reagents were used as received: acetonitrile (HPLC grade, Burdick & Jackson, Madison, Wis.), phosphate buffered saline (PBS), pH 7.4 (Sigma-Aldrich, Co., St. Louis, Mo.), water (HPLC grade, JT Baker, Phillipsburg, N.J.), DMSO (EM Science, Merck KGaA, Darmstadt, Germany) and isopropanol (IPA, reagent grade, EMD Chemicals, Gibbstown, N.J.). Propantheline and esmolol (Sigma-Aldrich) were used as the positive control compounds in the assay. Diazepam (Sigma-Aldrich) was used as an internal standard for quantitation. Human whole blood was obtained from BioIVT (Westbury, N.Y.) […]. All other reagents and solvents were of the highest analytical grade supplied by Sigma (St. Louis, Mo.) and were used as received.
Blood Incubations: The in vitro stability of representative KRas G12C inhibitor compounds of the present invention in the presence whole blood was conducted in the following manner. Esmolol or propantheline, which are known to undergo ester hydrolysis by esterases in blood and plasma, were used as the positive controls in the assays. A 10 mM stock solution of propantheline, esmolol, or a compound of the present invention in DMSO was diluted to 500 μM with DMSO. Aliquots of whole blood (600 μL), in triplicate, were placed in the appropriate wells of a polypropylene 96-deep well plate (Axygen Scientific, Union City, Calif.). The blood was diluted to 50% using PBS, pH 7.4 (600 μL). The diluted blood was pre-incubated for 15 minutes at 37° C. Each well was dosed with 12 μL of the 500 μM DMSO stock simultaneously for a final test concentration of 5 μM. The plates were mixed at 600 rpm for 10 seconds on a plate shaker (IKA MTS 2/4 Digital Microtiter Shaker, VWR). Aliquots of 100 μL from each well of whole blood were transferred to three separate 96-deep well plates labeled 0, 60, or 240 minutes. At the end of each designated time point, the red blood cells were lysed with 100 μL of water, mixed at 600 rpm for one minute, and stopped with 800 μL of acetonitrile containing IS (0.625 μM diazepam). The plates were mixed on the plate shaker at 600 rpm for one minute and spun in a centrifuge at 2095×g for 7 minutes at room temperature using an Allegra benchtop centrifuge (Beckman Coulter, Fullerton, Calif.). Supernatant (100 μL) was transferred to a shallow 96-well plate (Costar) using a liquid sample handling system (Apricot, Perkin-Elmer, Boston, Mass.). The addition of 100 μL of water was added to each sample of supernatant for a final volume of 200 μL. The plates were sealed and the contents of each well were analyzed by LC-MS/MS.
Analytical quantitation: The LC-MS/MS system was comprised of an HTS-PAL autosampler (Leap Technologies, Carrboro, N.C.), an HP1200 HPLC (Agilent, Palo Alto, Calif.), and an API4000 triple quadrupole mass spectrometer (PE Sciex, a division of Applied Biosystems, Foster City, Calif.). […] The total run time, including re-equilibration, for a single injection was 2 minutes. Mass spectrometric detection of the analytes was accomplished using the ESI ionization mode. Ion current was optimized during infusion of a stock solution of propantheline, esmolol, or the representative test compound. Analyte responses, including the IS were measured by multiple reaction monitoring (MRM) of transitions unique to each compound.
Calculations: Data were acquired and peak areas were calculated for test compounds and the internal standard using Analyst 1.6.2 software (Sciex). The mean peak area ratios were calculated by averaging the peak area ratios (n=3) of each test compound and the IS for each sample.
Peak area tables were exported to BioAssay Enterprise (CambridgeSoft, Cambridge, Mass.), where the average analyte-to-internal standard peak area ratios were used to calculate percent remaining (% REM) and half-life (t1/2). Percent remaining (f) was calculated by determining the ratio of the peak area ratio at each time point to the peak area ratio of the time-zero samples. […]

KRas G12C, sequence (P01116 1-188 isoform P01116-2 G12C): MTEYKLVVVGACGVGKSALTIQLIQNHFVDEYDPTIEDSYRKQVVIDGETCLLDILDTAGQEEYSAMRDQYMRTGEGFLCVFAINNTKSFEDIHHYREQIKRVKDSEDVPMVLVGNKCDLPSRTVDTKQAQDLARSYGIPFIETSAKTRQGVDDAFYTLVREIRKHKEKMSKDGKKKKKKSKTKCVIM

Structure (SMILES) | IC50 [1] | half-life at 5 µM [2]
C=C(F)C(=O)N1CCN(c2nc(OC[C@H]3CCCN3C)nc3c2CCN(c2cccc4cccc(C)c24)C3)C[C@@H]1CC#N [Example 516, 2-((S)-1-(2-fluoroacryloyl)-4-(7-(8-methylnaphthalen-1-yl)-2-(((R)-1-methylpyrrolidin-2-yl)methoxy)-5,6,7,8-tetrahydropyrido[3,4-d]pyrimidin-4-yl)piperazin-2-yl)acetonitrile] | 0.1 to 1000 nM | > 33.3 h
Cc1cccc2cccc(N3CCc4c(nc(OC[C@H]5CCCN5C)nc4N4CCN(C(=O)/C=C/CO)[C@@H](CC#N)C4)C3)c12 [Example 517, 2-((S)-1-((E)-4-hydroxybut-2-enoyl)-4-(7-(8-methylnaphthalen-1-yl)-2-(((R)-1-methylpyrrolidin-2-yl)methoxy)-5,6,7,8-tetrahydropyrido[3,4-d]pyrimidin-4-yl)piperazin-2-yl)acetonitrile] | 0.1 to 1000 nM | 16.7 to 33.3 h
COC/C=C/C(=O)N1CCN(c2nc(OC[C@@H]3CCCN3C)nc3c2CCN(c2cccc4cccc(Cl)c24)C3)C[C@@H]1CC#N [Example 524, 2-((S)-4-(7-(8-chloronaphthalen-1-yl)-2-(((S)-1-methylpyrrolidin-2-yl)methoxy)-5,6,7,8-tetrahydropyrido[3,4-d]pyrimidin-4-yl)-1-((E)-4-methoxybut-2-enoyl)piperazin-2-yl)acetonitrile] | 0.1 to 1000 nM | > 33.3 h
Cc1cccc2cccc(N3CCc4c(nc(OC[C@H]5CCCN5C)nc4N4CCN(C(=O)/C=C/CF)[C@@H](CC#N)C4)C3)c12 [Example 579, 2-[(2S)-1-[(E)-4-Fluorobut-2-enoyl]-4-[7-(8-methyl-1-naphthyl)-2-[[(2R)-1-methylpyrrolidin-2-yl]methoxy]-6,8-dihydro-5H-pyrido[3,4-d]pyrimidin-4-yl]piperazin-2-yl]acetonitrile] | 0.1 to 1000 nM | 16.7 to 33.3 h
